Laboratory results taken from patent publication US20210187014A1 (The Regents of the University of Colorado, a body corporate, priority 2018, published 2021).

Legend:
mice = experiment: Growth of mice fed control (iron-adequate) diet, Ent in drinking water; assay type: in vivo; conditions: male mice, drinking water pH 5.5
Description: The present inventors treated 4.5-week male mice with the iron-adequate control diet (CD) described above, the matched control for the iron-deficient diet (IDD). As shown above in FIGS. 20 and 21, mice fed this diet had relative normal hemoglobin and iron levels. […] This experiment was incomplete because the hemoglobin and iron levels were not measured, which will be repeated.

ATP-1 [1] = target: T1, ATP-1 (Caenorhabditis elegans, UniProt Q9XXK1); experiment: Iron-binding assay: 55FeCl3 +/- siderophore in worm lysates, ATP-1 immunoprecipitation; design: species or system C. elegans
T1 construct: His; made in house; host or cells: E. coli (given only for the three ATP-1 segments)
Procedure: The present inventors added radiolabeled iron (55FeCl3) to worm lysates and then immunoprecipitated ATP-1.
(§1) In vitro binding assay. (a) Ent-biotin pull-down of total proteins: Ent-biotin and streptavidin beads were used to pull down interacting proteins from worm total protein extracts (same method as that in initial screen for Ent-binding proteins). Western blots were performed to detect ATP-1 (Thermo Fisher 43-9800). […] The assay was then quenched with a standard 5×SDS-PAGE_loading buffer (reducing). Proteins were separated by SDS-PAGE and transferred to_nitrocellulose membranes. The membranes were blocked for 1 h with 5% BSA in Trisbuffered saline (TBS) with 0.1% Tween 20 (TBST) at room temperature, followed by incubation for 1 h with horseradish peroxidase streptavidin (Cell Signaling_Technology,3999S) in TBST. After four washes with changes every 15 min in TBST, the_biotinylated proteins were visualized by enhanced chemiluminescence (GE Healthcare,_RPN2232). […] After IP, the amount of 55Fe was determined by liquid scintillation.

HEK293T cells [2] = experiment: Mitochondrial iron level by fluorescent indicator RPA; assay type: cell-based, human
Description: Moreover, using siRNA knockdown (FIG. 13A), the present inventors observed that this Ent-mediated increase depended on ATP5A1 (FIG. 6E, F) in a similar manner as that in the assays for C. elegans (FIG. 5A, D). The present inventors also measured the mitochondrial iron level in cells by using the fluorescent mitochondrial iron indicator, RPA, to which iron binding quenches its fluorescence. […] The relatively smaller changes seen for cultured cells, compared to the difference in worms fed heat-killed food (FIG. 2), may potentially be due to the higher base iron level under the cell culturing condition.
Mitochondrial iron measurement in mammalian cells. The mitochondrial iron pools were determined as described (Mena et al., 2015). Briefly, cells were loaded for 20 min at 37 ° C. with 2 uM of the mitochondrial iron chelator rhodamine B-[(1,10-phenanthrolin-5-yl) aminocarbonyl]benzyl ester (RPA). After washing, the cells were imaged by fluorescence microscopy.

C. elegans = experiment: Iron level in live worms by calcein-AM staining (and pftn-2::GFP reporter); assay type: in vivo
Procedure: The present inventors employed the commonly used fluorescent cell-permeable dye, calcein AM, of which emission is quenched by iron binding, and applied it to live worms as previously described to estimate the overall iron level in the host.
Live imaging of iron in worms was done as previously described (James et al., 2015). Briefly, worms were collected at different culture conditions, then co-cultured in M9 with 0.05 ug/ML calcein-AM (Invitrogen) for 1 h, then washed 3 times in 1 ml M9. Samples were then mounted for fluorescence microscopy.
For calcein-AM staining, the original images taken with GFP channel were used to measure the intensity. The value of staining intensity was determined by subtracting the background intensity from the calcein-AM stained intestine.

MEL cells = experiment: Erythroid differentiation of MEL cells (color change of cell pellets); assay type: cell-based, murine; conditions: equimolar supplementation
Procedure: FIG. 27. Ferric Enterobactin supplementation benefits differentiation of erythroid progenitor cells (MEL) to red blood cells. (FIG. 27A) MEL cells were grown with the indicated treatments. Cell pellets are shown. (FIG. 27B) Quantification of MEL color change presented as the average intensity of each cell pellet, normalized to the intensity of the control. Error bars are the standard deviation of three technical replicates.
MEL cells are murine erythroid progenitor cells that are arrested at the proerythroblast stage. In the laboratory, these cells are induced to undergo erythroid differentiation to red blood cells by addition of various chemicals (e.g. 2% DMSO) (Friend, 1971). Erythroid differentiation is an iron-dependent process that results in a color change in the differentiated cells. The present inventors tested if addition of Fe-Ent would positively impact the differentiation of wild-type MEL cells to red blood cells.

ATP-1 [3] = target: T1, ATP-1; experiment: Biotin-Ent binding to ATP-1 (in vivo pulldown and in vitro binding assay); design: species or system C. elegans; conditions: excess non-biotin labeled Ent
Procedure: First, in an in vivo assay, worms were fed bacteria +/− Biotin-Ent and total protein extracts were isolated, followed by streptavidin-bead purification and SDS-PAGE. […] Just as the iron-free Biotin-Ent, iron-bound Biotin-Ent also bound the ATP-1 protein (FIG. 10B, C).
In vivo binding assay: Worms were allowed to grow with Ent-biotin (5 ug/ml) dietary supplementation, followed by streptavidin-bead IP. Western blot was performed to detect ATP-1, using an antibody against the mammalian ATP synthase a-subunit (Thermo Fisher 43-9800).
as §1, with “TBST.” for “TBST. After four washes with changes every 15 min in TBST, the_biotinylated proteins were visualized by enhanced chemiluminescence (GE Healthcare,_RPN2232).”

HEK293T cells [4] = experiment: CAS staining of siderophore level in HEK293T cells; assay type: cell-based, human; conditions: Ent supplemented to the culture medium
HEK293T cells [5] = experiment: In vivo mitochondrial iron uptake assay in HEK293T cells; assay type: cell-based, human
germ-free (GF) mice = experiment: Growth of germ-free mice colonized with entF- E. coli, Ent in drinking water; assay type: in vivo; conditions: GF female mice colonized with entF- E. coli, drinking water pH 5.5
Procedure: As generally shown in FIG. 23, (A) Five-week old female germ-free (GF) mice were colonized with a single non-pathogenic E. coli (K12) strain, wild type or entF-(Ent-deficient E. coli). Mouse growth (weight gain) was measured for the following 4 weeks. […] Iron level was measured.

T1 sequence (Q9XXK1 whole entry): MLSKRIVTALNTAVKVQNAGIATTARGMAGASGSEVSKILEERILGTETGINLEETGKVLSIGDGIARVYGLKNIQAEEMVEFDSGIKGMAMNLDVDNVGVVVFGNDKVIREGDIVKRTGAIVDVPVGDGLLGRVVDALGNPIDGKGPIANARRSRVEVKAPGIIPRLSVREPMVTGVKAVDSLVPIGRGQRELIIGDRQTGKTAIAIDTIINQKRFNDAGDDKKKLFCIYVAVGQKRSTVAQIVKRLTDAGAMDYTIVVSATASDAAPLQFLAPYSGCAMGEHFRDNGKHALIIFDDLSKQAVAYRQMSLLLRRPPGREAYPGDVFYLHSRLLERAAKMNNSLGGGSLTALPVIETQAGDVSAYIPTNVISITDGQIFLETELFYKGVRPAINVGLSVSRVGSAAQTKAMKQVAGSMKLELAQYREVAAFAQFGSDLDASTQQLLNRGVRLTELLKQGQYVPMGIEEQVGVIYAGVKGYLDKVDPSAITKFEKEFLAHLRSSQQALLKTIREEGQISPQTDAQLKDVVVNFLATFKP

For O=C(N[C@H]1COC(=O)[C@@H](NC(=O)c2cccc(O)c2O)COC(=O)[C@@H](NC(=O)c2cccc(O)c2O)COC1=O)c1cccc(O)c1O [Ent, enterobactin], the “growth rate (weight gain)” value (mice) was “increased growth rate”, the “increase in 55Fe associated with ATP-1-IP” value (ATP-1 [1]; whole worm lysates) was over 10 fold and the “binding of ATP-1 to 55Fe” value (ATP-1 [1]; worm lysates) was “dramatically increased”. For the same compound, the “mitochondrial iron level (RPA)” value (HEK293T cells [2]) was “increased the mitochondrial iron level”, the “iron-boosting effect of Ent (RPA)” value (HEK293T cells [2]; cells treated with ATP5A1 siRNA) was “not seen” and the “iron level gain with Ent supplementation” value (C. elegans; atp-1 RNAi, entF- mutant bacteria) was “eliminated the iron level gain”. The “iron level in worms (calcein AM and pftn-2::GFP)” value (C. elegans; growth-arrested worms fed heat-killed E. coli only) was “such a defect was suppressed”, the “iron level and growth rate defects” value (C. elegans; iron-deficient condition, worms treated with CaEDTA) was “both defects were suppressed” and the “iron level in worms (calcein AM fluorescence)” value (C. elegans; worms fed entA- or entF- mutant bacteria with heat-killed E. coli) was “recovered”. The “amount of FeCl3 (175 ug/ul) with equivalent effect on calcein-AM fluorescence decrease” value (C. elegans; worms treated with CaEDTA) was 10 µL, the “iron level increase attributed to Ent-mediated iron uptake” value (C. elegans; worms treated with CaEDTA) was at least 10 fold and the “MEL differentiation to red blood cells” value (MEL cells) was “decrease in differentiation”. The “competition of Biotin-Ent binding to ATP-1-His” value (ATP-1 [3]) was “outcompeted”, the “entry into cells (CAS staining, siderophore level)” value (HEK293T cells [4]) was “can enter” and the “iron level in mitochondria” value (HEK293T cells [5]) was “prominently increased”. The “growth (weight gain)” value (germ-free (GF) mice) was “overcomes growth delay”.
